Data: ChEMBL document CHEMBL1201862, “PubChem BioAssay data set” (2004)
Activity calls are given as the source filed them.

Assays:
[1] = target: Cytochrome P450 3A4 (Homo sapiens, UniProt P08684);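 further: CYP3A4 tested as one member of a cytochrome P450 panel screen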
[2] = target: Luciferin 4-monooxygenase (Photinus pyralis, UniProt P08659); experiment: firefly luciferase enzyme inhibitors, dose response, biochemical, luminescence (AID 1891)
[3] = Luminescence Cell-Based Dose Confirmation HTS to Identify Inhibitors of Platelet Dense Granule Release. [Related pubchem assays: 1663 (Primary HTS), 1678 (Summary of Project)]; format: functional
[4] = Luminescence Cell-Based Dose Retest to Confirm Inhibitors of Cancer Stem Cells. [Related pubchem assays (depositor defined):AID2717, AID2721]; format: functional; details: Homo sapiens
[5] = system: INS1; experiment: beta cell apoptosis inhibitors, cytokine rescue, dose response, luminescence, retest (AID 449756); format: functional, cell-based; details: Rattus norvegicus;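 further: cell death triggered by IL-1 beta plus TNF-alpha plus IFN-gamma mixture; protective hits raise ATP signal compared with cytokine alone wells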
[6] = target: T1, Replicative DNA helicase DnaB (Mycobacterium tuberculosis, UniProt P9WMR3); experiment: DnaB intein splicing inhibitors, dose response, biochemical, cell-free fluorescence (AID 449749); format: functional
T1 sequence (P9WMR3 whole entry): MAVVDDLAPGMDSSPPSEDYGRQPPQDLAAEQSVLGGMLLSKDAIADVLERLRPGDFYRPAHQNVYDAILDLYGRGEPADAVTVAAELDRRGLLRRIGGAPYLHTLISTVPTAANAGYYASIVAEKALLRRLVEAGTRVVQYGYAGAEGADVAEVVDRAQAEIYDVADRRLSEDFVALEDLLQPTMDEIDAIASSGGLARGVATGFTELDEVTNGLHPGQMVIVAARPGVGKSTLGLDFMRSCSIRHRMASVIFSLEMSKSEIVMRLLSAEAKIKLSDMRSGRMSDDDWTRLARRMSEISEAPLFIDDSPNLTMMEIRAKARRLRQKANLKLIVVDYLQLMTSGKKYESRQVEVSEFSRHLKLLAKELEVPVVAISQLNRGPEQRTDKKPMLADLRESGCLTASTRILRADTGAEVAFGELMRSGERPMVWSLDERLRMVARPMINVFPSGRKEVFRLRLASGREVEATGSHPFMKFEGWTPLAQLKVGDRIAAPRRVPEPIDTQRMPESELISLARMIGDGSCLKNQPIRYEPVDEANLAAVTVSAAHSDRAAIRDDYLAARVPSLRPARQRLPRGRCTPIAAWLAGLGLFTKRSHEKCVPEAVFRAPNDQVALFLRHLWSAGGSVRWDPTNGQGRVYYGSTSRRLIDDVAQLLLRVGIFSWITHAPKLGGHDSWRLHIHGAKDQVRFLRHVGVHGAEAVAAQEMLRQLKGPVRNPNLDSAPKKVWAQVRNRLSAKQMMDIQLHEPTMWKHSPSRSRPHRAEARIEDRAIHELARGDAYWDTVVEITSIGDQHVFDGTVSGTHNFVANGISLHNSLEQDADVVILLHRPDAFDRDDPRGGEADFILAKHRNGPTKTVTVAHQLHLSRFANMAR

[7] = target: T2, Protein RecA (Mycobacterium tuberculosis, UniProt P9WHJ3); experiment: Fluorescence Cell-Free Homogeneous Dose Retest to Identify Inhibitors of RecA-Intein Splicing Activity. [Related pubchem assays (depositor defined):AID2097, AID2223, AID489010, AID492950]; format: functional
T2 sequence (P9WHJ3 whole entry): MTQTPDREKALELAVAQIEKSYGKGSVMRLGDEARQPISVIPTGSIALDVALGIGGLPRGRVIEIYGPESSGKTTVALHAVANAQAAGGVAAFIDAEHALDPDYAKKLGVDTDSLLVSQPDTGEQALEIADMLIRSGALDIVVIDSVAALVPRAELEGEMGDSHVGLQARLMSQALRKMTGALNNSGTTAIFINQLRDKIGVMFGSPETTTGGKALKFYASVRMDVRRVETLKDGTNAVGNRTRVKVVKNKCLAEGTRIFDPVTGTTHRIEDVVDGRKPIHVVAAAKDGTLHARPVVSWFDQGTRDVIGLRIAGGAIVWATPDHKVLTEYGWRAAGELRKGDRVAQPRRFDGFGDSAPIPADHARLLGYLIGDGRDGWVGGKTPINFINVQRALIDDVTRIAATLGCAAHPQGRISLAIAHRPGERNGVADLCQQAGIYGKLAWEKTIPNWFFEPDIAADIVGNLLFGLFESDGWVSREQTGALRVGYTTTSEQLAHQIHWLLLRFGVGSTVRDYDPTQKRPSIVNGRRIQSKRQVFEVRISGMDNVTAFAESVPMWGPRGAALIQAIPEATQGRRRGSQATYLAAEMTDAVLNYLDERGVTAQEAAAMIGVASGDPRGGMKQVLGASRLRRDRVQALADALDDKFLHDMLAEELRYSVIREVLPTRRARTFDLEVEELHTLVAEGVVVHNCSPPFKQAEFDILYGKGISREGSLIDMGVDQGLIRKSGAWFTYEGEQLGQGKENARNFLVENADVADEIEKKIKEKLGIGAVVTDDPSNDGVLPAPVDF

[8] = target: Cytochrome P450 2C19 (Homo sapiens, UniProt P33261); experiment: Cytochrome panel assay with activity outcomes. Panel member name: p450-cyp2c19 Compounds with AC50 equal or less than 10 uM are considered active; format: functional; details: read-out: AC50
Sequence of Cytochrome P450 2C19 (P33261 whole entry): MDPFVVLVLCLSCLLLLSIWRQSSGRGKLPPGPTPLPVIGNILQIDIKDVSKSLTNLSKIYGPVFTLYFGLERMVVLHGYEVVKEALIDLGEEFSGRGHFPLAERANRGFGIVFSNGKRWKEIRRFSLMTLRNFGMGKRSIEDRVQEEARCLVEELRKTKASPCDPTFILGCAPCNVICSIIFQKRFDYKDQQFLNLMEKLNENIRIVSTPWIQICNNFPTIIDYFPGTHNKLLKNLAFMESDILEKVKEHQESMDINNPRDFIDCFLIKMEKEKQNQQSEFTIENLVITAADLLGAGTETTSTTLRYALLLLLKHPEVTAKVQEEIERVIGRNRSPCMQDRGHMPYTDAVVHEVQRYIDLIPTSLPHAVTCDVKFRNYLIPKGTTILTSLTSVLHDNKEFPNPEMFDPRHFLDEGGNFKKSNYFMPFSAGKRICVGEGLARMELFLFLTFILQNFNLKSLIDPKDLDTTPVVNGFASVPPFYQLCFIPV

[9] = inhibitors of intracellular T. cruzi replication, confirmation, NIH3T3 host cells, beta-gal luminescence (AID 2044); format: functional, cell-based;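 further: intracellular parasites grown in NIH/3T3 mouse fibroblasts as host cells; luminescent beta-galactosidase reporter signal from transgenic T. cruzi replicating inside host cells; inhibitors lower the luminescence signal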
[10] = cytotoxicity toward NIH3T3 fibroblasts, dose response, counter-screen, cell-based, ATP luminescence, mouse fibroblasts (AID 2010); format: functional;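 further: cells exposed to compound for about 90 hours before reading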
[11] = target: T3, Cytochrome P450 1A2 (Homo sapiens, UniProt P05177);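 further: PubChem cytochrome P450 panel assay, CYP1A2 panel member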
T3 sequence (P05177 whole entry): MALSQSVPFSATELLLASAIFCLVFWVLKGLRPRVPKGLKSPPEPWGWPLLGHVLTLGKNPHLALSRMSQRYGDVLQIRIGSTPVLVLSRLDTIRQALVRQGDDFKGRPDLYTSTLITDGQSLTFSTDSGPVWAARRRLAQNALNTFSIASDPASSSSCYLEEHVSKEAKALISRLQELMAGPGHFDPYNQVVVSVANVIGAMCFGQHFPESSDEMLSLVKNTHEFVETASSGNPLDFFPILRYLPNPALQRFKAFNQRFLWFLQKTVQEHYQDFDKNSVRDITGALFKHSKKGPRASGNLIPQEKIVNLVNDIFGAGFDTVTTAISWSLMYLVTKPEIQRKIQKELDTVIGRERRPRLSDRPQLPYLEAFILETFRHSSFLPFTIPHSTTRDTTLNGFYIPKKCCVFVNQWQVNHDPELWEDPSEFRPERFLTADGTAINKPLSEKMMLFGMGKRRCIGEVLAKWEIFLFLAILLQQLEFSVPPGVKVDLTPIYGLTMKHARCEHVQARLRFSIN

[12] = target: Cytochrome P450 2D6 (Homo sapiens, UniProt P10635);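 further: CYP2D6 member of a cytochrome P450 panel assay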
Sequence of Cytochrome P450 2D6 (P10635 whole entry): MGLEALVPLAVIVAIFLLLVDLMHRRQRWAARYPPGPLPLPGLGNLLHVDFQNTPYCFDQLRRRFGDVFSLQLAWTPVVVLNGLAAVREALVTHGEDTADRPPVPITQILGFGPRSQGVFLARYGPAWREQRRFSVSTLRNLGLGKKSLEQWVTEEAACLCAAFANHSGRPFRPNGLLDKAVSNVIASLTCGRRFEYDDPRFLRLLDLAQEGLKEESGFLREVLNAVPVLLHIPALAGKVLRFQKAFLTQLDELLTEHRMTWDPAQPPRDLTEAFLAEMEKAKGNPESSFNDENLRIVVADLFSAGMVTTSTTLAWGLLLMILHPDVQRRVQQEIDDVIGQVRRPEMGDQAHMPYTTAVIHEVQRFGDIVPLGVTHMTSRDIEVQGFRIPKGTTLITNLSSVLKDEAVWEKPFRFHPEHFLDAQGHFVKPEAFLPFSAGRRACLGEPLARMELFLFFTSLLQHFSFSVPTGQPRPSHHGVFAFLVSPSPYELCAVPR

[13] = target: Cytochrome P450 2C9 (Homo sapiens, UniProt P11712)
Sequence of Cytochrome P450 2C9 (P11712 whole entry): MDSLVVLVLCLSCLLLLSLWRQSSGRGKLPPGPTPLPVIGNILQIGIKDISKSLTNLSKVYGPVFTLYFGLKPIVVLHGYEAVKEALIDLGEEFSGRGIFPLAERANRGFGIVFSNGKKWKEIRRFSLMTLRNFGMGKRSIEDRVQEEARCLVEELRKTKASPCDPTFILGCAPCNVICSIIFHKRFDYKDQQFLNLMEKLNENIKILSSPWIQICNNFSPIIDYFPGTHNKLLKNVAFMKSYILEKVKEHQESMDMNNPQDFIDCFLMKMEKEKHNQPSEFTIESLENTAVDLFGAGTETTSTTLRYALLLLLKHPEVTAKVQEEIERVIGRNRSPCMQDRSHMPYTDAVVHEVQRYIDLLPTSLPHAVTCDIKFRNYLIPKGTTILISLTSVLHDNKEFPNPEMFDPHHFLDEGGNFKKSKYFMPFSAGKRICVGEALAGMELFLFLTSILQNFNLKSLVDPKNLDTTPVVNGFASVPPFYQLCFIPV

Sequence of Cytochrome P450 3A4 (P08684 whole entry): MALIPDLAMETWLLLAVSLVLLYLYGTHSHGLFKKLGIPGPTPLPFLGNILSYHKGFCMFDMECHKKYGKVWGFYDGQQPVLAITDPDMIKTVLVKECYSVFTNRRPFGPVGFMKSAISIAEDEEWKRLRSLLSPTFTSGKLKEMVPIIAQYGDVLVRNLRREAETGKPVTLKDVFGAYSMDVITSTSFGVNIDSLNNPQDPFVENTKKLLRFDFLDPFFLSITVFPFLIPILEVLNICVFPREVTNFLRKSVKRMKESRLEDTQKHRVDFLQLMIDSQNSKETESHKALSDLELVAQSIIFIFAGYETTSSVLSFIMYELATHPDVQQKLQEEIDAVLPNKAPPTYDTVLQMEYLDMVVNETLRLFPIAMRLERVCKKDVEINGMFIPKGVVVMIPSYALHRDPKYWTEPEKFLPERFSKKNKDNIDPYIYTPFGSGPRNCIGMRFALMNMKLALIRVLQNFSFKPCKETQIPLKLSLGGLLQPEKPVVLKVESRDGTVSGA
Sequence of Luciferin 4-monooxygenase (P08659 whole entry): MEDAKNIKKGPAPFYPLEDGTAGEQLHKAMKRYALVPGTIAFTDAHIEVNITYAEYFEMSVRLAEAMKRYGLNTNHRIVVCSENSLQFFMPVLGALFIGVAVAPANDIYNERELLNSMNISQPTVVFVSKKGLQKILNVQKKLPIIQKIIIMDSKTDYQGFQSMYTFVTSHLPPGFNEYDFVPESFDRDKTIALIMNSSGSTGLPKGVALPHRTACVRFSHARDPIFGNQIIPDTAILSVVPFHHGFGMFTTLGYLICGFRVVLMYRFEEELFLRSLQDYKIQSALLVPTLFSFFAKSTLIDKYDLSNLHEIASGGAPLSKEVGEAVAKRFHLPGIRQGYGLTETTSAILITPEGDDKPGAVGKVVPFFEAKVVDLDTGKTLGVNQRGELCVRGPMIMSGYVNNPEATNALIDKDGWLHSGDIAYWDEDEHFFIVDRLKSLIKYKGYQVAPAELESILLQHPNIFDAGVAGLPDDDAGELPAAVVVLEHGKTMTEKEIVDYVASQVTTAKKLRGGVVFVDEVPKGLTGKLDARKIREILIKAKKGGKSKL

Cc1ccccc1C(=N)c1ccccc1Cc1cccc2ccccc12
AC50 [1]: 1.58 µM (inconclusive)

CC1(C)CC(=O)C2=C(C1)N(Cc1ccccc1)C(=O)C2(O)C(F)(F)F (stereo not given)
EC50 [2]: > 112 µM (not active)
EC50 [3]: > 112 µM (not active)
AC50 [1]: 20 µM (inconclusive)

Cc1cccc(N(C)C(=O)c2cc3c(O)nc4ccc(C)cc4c3s2)c1
EC50 [2]: > 112 µM (not active)
EC50 [3]: 70.7 µM (active)
AC50 [4]: 0.394 µM (active)

Cc1cc(C)cc(C(=O)Nc2nnc(SCC(=O)N3CCCc4ccccc43)s2)c1
AC50 [4]: 4.46 µM (active)

O=C(c1ccccc1F)c1cn(CC(=O)N2CCOCC2)c2ccccc12
AC50 [1]: 17.8 µM (inconclusive)

Cc1ccc(S(=O)(=O)Nc2ccc3c(c2)CC(=O)N([C@H](C)CO)C[C@@H](C)[C@H](CN(C)Cc2ccc(-c4ccccc4)cc2)O3)cc1
AC50 [4]: 3.9 µM (active)

Cn1c(=O)c2c(nc(N3CCN(c4ccccn4)CC3)n2Cc2ccc(Cl)cc2Cl)n(C)c1=O
AC50 [1]: 2.24 µM (inconclusive)

CCC(=NNC(=O)c1ccc2c(c1)nc(C)n2CC)c1cc(F)ccc1O
AC50 [5]: 2.32 µM (active)

COc1cccc(-c2sc3ccccc3c2-c2ccc(OCCN3CCOCC3)cc2)c1
AC50 [4]: 2.32 µM (active)

O=C(c1ccc(F)c(S(=O)(=O)N2CCOCC2)c1)N1CCN(c2ccc(F)cc2)CC1
AC50 [5]: > 260 µM (inactive)

COc1ccc(C(=O)Nc2ccc(O)c3ccccc23)cc1OC
AC50 [6]: 82 µM (active)
EC50 [7]: 8.4 µM (active)

C=CCOc1ccc2cccc(/C=N/NC(=O)c3cc4cc([N+](=O)[O-])ccc4s3)c2c1
AC50 [8]: 0.398 µM (inconclusive)
AC50 [1]: 2.51 µM (inconclusive)

C/C(=N\N1C(=O)c2ccccc2NC1c1ccco1)c1ccccc1O (stereo not given)
EC50 [9]: 1.66 µM (active)
EC50 [10]: 4.99 µM (active)
AC50 [5]: 2.21 µM (active)

CC(=O)Nc1ccccc1NC(=O)C/C(C)=N/NC(=O)C(=O)N1CCCCC1
AC50 [6]: 5.84 µM (active)
EC50 [7]: 0.891 µM (active)

O=C(Cc1cc(O)n[nH]1)N/N=C/c1c(F)cccc1Cl
AC50 [6]: 1.87 µM (active)
EC50 [7]: 1.53 µM (active)

COc1cccc(/C=N\NC(=O)C2C(=O)NCC2c2ccccc2)c1O (stereo not given)
AC50 [8]: 39.8 µM (inconclusive)
AC50 [11]: 17.8 µM (inconclusive)
AC50 [1]: 25.1 µM (inconclusive)

Cc1cc(C)nc(N/N=C2/CCCC/C2=C\c2ccccc2)n1
AC50 [5]: 0.397 µM (active)

CN(N=O)c1cc(O)ccc1O [DEPHOSTATIN]
AC50 [8]: 25.1 µM (inconclusive)
AC50 [12]: 31.6 µM (inconclusive)
AC50 [11]: 31.6 µM (inconclusive)
AC50 [13]: 10 µM (inconclusive)

CCN(CC)CCNC(=O)COc1ccc(OC)cc1 [MEFEXAMIDE]
AC50 [12]: 12.6 µM (inconclusive)
AC50 [11]: 12.6 µM (inconclusive)
